Laboratory results published in PubChem BioAssay AID1919004 (Molecular Pharmacology Branch, DTP, NCI, 2023).

Tested on: 883617-216-R-J1-PDC complex spheroids, growth, % test/control
Assay: Anticancer human tumor 883617-216-R-J1-PDC patient-derived bladder carcinoma cell line growth inhibition [AhR]
Settings: for IC50: curve of first compound; for viability, T/C: stronger effect = lower value
From the text: Multicellular complex tumor spheroid response to aryl hydrocarbon receptor antagonists in combination with a variety of drugs and investigational agents in selected tumor cell lines
The current study was undertaken to assess response to aryl hydrocarbon receptor antagonists in combination with standard-of-care drugs and investigational agents in solid tumor complex spheroid models. Complex spheroids include a stromal component modeled by human endothelial cells (HUVEC) and fibroblasts modeled by human mesenchymal stem cells (MSCs). The concentration ranges selected for each drug and investigational agent were based upon clinically achievable concentrations if the clinical Cmax of the agent was known.
Compounds. The drugs and investigational agents: BAY 2416964 (NSC825713), GNF351 (NSC835774), CH-223191 (NSC835775), CPI-455 (NSC825282), aza-TdCyd (NSC777586), decitabine (NSC127716), belinostat (NSC758774), entinostat (NSC756642), pevonedistat (NSC761192), tazemetostat (NSC777109), talazoparib (NSC765396), olaparib (NSC753686), selinexor (NSC780203), nedisertib (M3814, NSC802822), bortezomib (NSC756655), venetoclax (NSC766270), doxorubicin (NSC123127), elimusertib (BAY189344, NSC800525), ceralasertib (AZD6738, NSC777638), TAK-243 (NSC785004), alisertib (NSC759677), etoposide (NSC141540), topotecan (NSC609699), eribulin (NSC707389), gemcitabine (NSC613327), carboplatin (NSC241240), cisplatin (NSC119875), and SN-38 (NSC673596) were obtained from the National Cancer Institute (NCI) Developmental Therapeutics Program Chemical Repository (32). The FDA-approved anticancer drug set is available from the Developmental Therapeutics Program at https://dtp.cancer.gov/organization/dscb/obtaining/available plates.htm. […] The stock solutions were prepared in dimethyl sulfoxide (DMSO, Sigma-Aldrich, St. Louis, MO, cat. D2650), except for the platinum compounds which were prepared in saline (Quality Biological, Gaithersburg, MD, cat. 114-055-101), at 800-fold the tested concentration and stored at -70 degrees C prior to their use. All drugs and investigational agents were tested over a range starting from a high concentration at or near the clinical Cmax and decreasing in half-log increments. If the clinical Cmax for an agent had not been determined, the highest concentration tested was 10 microM (Table 1).
Cell Culture. All cells were maintained in an incubator at 37 degrees C and 5% CO2 with 95% humidity. The PDC lines were cultured according to standard operating procedures established by the NCI PDMR (https://pdmr.cancer.gov). Briefly, all PDCs were thawed and cultured in Matrigel-coated flasks prepared with a working solution of 1X Ham's F-12 nutrient mix, without supplementation (Invitrogen, Waltham, MA, cat. 11765054), 100 U/mL penicillin-streptomycin (Invitrogen, cat. 15140122), and 2.5% Matrigel (Corning Inc., Corning, NY, cat. 354248) for the first three passages. All PDCs were cultured in complete DMEM/F-12 media containing advanced DMEM/F-12 (Invitrogen, cat. 12634028), 4.9% defined fetal bovine serum, heat inactivated (HyClone Laboratories Inc., Logan, UT, cat. SH30070.03HI), 389 ng/mL hydrocortisone (Sigma-Aldrich, cat. H4001), 9.7 ng/mL human EGF recombinant protein (Invitrogen, cat. PHG0313), 23.4 microg/mL adenine (Sigma-Aldrich, cat. A2786), 97.3 U/mL penicillin-streptomycin (Invitrogen, cat. 15140122), 1.9 mM L-glutamine (Invitrogen, cat. 25030081), and 9.7 microM Y-27632 dihydrochloride (Tocris Bioscience, Bristol, United Kingdom, cat. 1254). The PDCs were cultured in complete DMEM/F12 media without 10 microM Y-27632 dihydrochloride for at least two passages prior to the screen. The established cell lines NCI-H1341 and […] were cultured in DMEM/F-12, HEPES (Invitrogen, cat. 11330032), 5% defined fetal bovine serum (HyClone Laboratories Inc., cat. SH30070.03), ITS premix universal culture supplement [insulin (5 microg/mL), transferrin (5 microg/mL), and selenious acid (5 ng/mL)] […]

[1] = second compound 0.1 µM, first compound 0.0316 µM
[2] = second compound 0.1 µM, first compound 0.1 µM
[3] = second compound 0.1 µM, first compound 0.316 µM
[4] = second compound 0.1 µM, first compound 1 µM
[5] = second compound 0.1 µM, first compound 3.16 µM
[6] = second compound 0.1 µM, first compound 10 µM
[7] = second compound 0.316 µM, first compound 0.0316 µM
[8] = second compound 0.316 µM, first compound 0.1 µM
[9] = second compound 0.316 µM, first compound 0.316 µM
[10] = second compound 0.316 µM, first compound 1 µM
[11] = second compound 0.316 µM, first compound 3.16 µM
[12] = second compound 0.316 µM, first compound 10 µM
[13] = second compound 1 µM, first compound 0.0316 µM
[14] = second compound 1 µM, first compound 0.1 µM
[15] = second compound 1 µM, first compound 0.316 µM
[16] = second compound 1 µM, first compound 1 µM
[17] = second compound 1 µM, first compound 3.16 µM
[18] = second compound 1 µM, first compound 10 µM
[19] = second compound 3.16 µM, first compound 0.0316 µM
[20] = second compound 3.16 µM, first compound 0.1 µM
[21] = second compound 3.16 µM, first compound 0.316 µM
[22] = second compound 3.16 µM, first compound 1 µM
[23] = second compound 3.16 µM, first compound 3.16 µM
[24] = second compound 3.16 µM, first compound 10 µM
[25] = second compound 10 µM, first compound 0.0316 µM
[26] = second compound 10 µM, first compound 0.1 µM
[27] = second compound 10 µM, first compound 0.316 µM
[28] = second compound 10 µM, first compound 1 µM
[29] = second compound 10 µM, first compound 3.16 µM
[30] = second compound 10 µM, first compound 10 µM
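Also: exposure lasted 7 days after dosing on day 3 of spheroid growth.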

SMILES | IC50 (second compound 0.1 µM) [µM] | IC50 (second compound 0.316 µM) [µM] | IC50 (second compound 1 µM) [µM] | IC50 (second compound 3.16 µM) [µM] | IC50 (second compound 10 µM) [µM] | viability, T/C [1] [%] | viability, T/C [2] [%] | viability, T/C [3] [%] | viability, T/C [4] [%] | viability, T/C [5] [%] | viability, T/C [6] [%] | viability, T/C [7] [%] | viability, T/C [8] [%] | viability, T/C [9] [%] | viability, T/C [10] [%] | viability, T/C [11] [%] | viability, T/C [12] [%] | viability, T/C [13] [%] | viability, T/C [14] [%] | viability, T/C [15] [%] | also measured
Nc1ccccc1NC(=O)c1ccc(CNC(=O)OCc2cccnc2)cc1 + CC(CO)NC(=O)c1cc(-c2ccc(Cl)cc2)nn(-c2cnn(C)c2)c1=O | 2.92 | 4.73 | 3.32 | 4.38 | 3.9 | 79.3 | 101 | 90.8 | 78.8 | 48.2 | 20.5 | 76.8 | 86.9 | 113 | 83 | 68.3 | 16.8 | 92.8 | 87.2 | 110 | viability, T/C [16]: 97.5%; viability, T/C [17]: 51.4%; viability, T/C [18]: 18.7%; viability, T/C [19]: 73.6%; viability, T/C [20]: 66.8%; viability, T/C [21]: 88%; viability, T/C [22]: 105%; viability, T/C [23]: 61.2%; viability, T/C [24]: 21.8%; viability, T/C [25]: 110%; viability, T/C [26]: 114%; viability, T/C [27]: 104%; viability, T/C [28]: 84.1%; viability, T/C [29]: 61.1%; viability, T/C [30]: 8.65%
O=C(C=Cc1cccc(S(=O)(=O)Nc2ccccc2)c1)NO + CC(CO)NC(=O)c1cc(-c2ccc(Cl)cc2)nn(-c2cnn(C)c2)c1=O | 3.57 | 3.5 | 0.793 | 1.51 | 1.82 | 88.5 | 96.9 | 78.1 | 86.6 | 55 | 7.64 | 95.2 | 87.6 | 85.7 | 105 | 54.7 | 1.72 | 75.3 | 62.7 | 113 | viability, T/C [16]: 41.5%; viability, T/C [17]: 41.6%; viability, T/C [18]: 1.68%; viability, T/C [19]: 104%; viability, T/C [20]: 66%; viability, T/C [21]: 67.6%; viability, T/C [22]: 69.5%; viability, T/C [23]: 36.6%; viability, T/C [24]: 6.34%; viability, T/C [25]: 101%; viability, T/C [26]: 89.5%; viability, T/C [27]: 101%; viability, T/C [28]: 54%; viability, T/C [29]: 40.9%; viability, T/C [30]: 1.34%
